Earlier results, collected in US9428458B2, “Substituted pyridoxine-lactam carboxylate-salts” (ALCOBRA LTD., priority 2008, dated 2016).

Settings: ca. 900 mg daily dose administered intravenously

pyridoxine L-2-pyrrolidone-5-carboxylate [metadoxine]
side effects associated with the use of metadoxine: nausea and vomiting
